Source: paper PMC6539678 (International Journal of Molecular Sciences, 2019)
Starred links: 1 amine or outer side, 2 acyl side, 3 side chain; linkers in the order of their positions; H or OH if unused. Non-standard residues stand in square brackets, D forms with d. Residues, ends and D or L forms follow the SMILES beside them. Groups on a side chain read outwards from the residue. *: point of attachment. PEG24 = NCCOCCOCCOCCOCCOCCOCCOCCOCCOCCOCCOCCOCCOCCOCCOCCOCCOCCOCCOCCOCCOCCOCCOCCOCCC(=O)O; X1 = O=C([C@H](Cc1ccc(-n2nnc3c2-c2ccccc2N([*:3])Cc2ccccc2-3)cc1)N[*:1])[*:2]; Pteroyl = Nc1nc2ncc(CNc3ccc(C(=O)*)cc3)nc2c(=O)[nH]1; Biotin = O=C1N[C@H]2[C@H](CS[C@H]2CCCCC(=O)*)N1; γGlu = O=C(O)[C@H](CCC(=O)[*:2])N[*:1]; βAla = NCCC(=O)O

Target: T1, folate receptor alpha (FRα) (Homo sapiens, UniProt P15328)
T1 construct: made in house
Experiment: Biolayer interferometry (BLI) binding of folate and folate-peptide conjugates to FRα
Conditions: for kon: pH 7.4, read-out: ka (association rate constant); for koff: pH 7.4, read-out: kd (dissociation rate constant)
Procedure: All steps performed for purification and refolding of FRα were carried out according to our previous report. However, some different reagents were used. […] The inclusion bodies were solubilized and purified with 8 M urea instead of 6 M guanidine HCl.
The measurement procedure has been reported previously. […] To eliminate errors from non-specific binding of the analyte (FRα) on the SA biosensor chips, reference data with the same concentrations of analyte were also measured.
The obtained binding data were analyzed using a 1:1 local analysis mode applied with association and dissociation step corrections by the BLItz Pro1.2 software (ForteBio). The reference measurements were subtracted during data analysis to determine ka, kd and KD.

[1] = BLI (BLItz), 25 °C, 10 mM PBS pH 7.4, 0.5% BSA, 0.01% Tween 20, ligand immobilized via biotin on streptavidin sensor, 1:1 local analysis, 'Folate' = folate-PEG8-biotin control

T1 sequence (P15328 25-257): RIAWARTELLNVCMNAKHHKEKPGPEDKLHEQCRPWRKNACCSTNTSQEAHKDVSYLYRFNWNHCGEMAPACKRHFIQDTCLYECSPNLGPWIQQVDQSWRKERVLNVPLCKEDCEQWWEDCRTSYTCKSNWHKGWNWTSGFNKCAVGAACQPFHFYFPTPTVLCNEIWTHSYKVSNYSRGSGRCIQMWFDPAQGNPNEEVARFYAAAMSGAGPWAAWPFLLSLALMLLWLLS

| Structure (SMILES) | kon [M⁻¹ s⁻¹] | koff [s⁻¹] | ka (association rate constant) [1] [M⁻¹ s⁻¹] | kd (dissociation rate constant) [1] [s⁻¹] | fold faster association constant (DSEZKAY relative to SEZKA) [fold] | fold faster dissociation constant (DSEZKAY relative to SEZKA) [fold] | fold lower KD (DSEZKAY relative to SEZKA) [fold] |
| --- | --- | --- | --- | --- | --- | --- | --- |
| C[C@H](NC(=O)[C@H](CCCCN)NC(=O)[C@H](Cc1ccc(-n2nnc3c2-c2ccccc2N(C(=O)CCNC(=O)CC[C@H](NC(=O)c2ccc(NCc4cnc5nc(N)[nH]c(=O)c5n4)cc2)C(=O)O)Cc2ccccc2-3)cc1)NC(=O)[C@H](CCC(=O)O)NC(=O)[C@H](CO)NC(=O)CCOCCOCCOCCOCCOCCOCCOCCOCCOCCOCCOCCOCCOCCOCCOCCOCCOCCOCCOCCOCCOCCOCCOCCOCCNC(=O)CCCC[C@@H]1SC[C@@H]2NC(=O)N[C@@H]21)C(=O)O [SEZKA] ({Biotin-PEG24}-SE[X1]([βAla-γGlu-Pteroyl])KA-OH; C-terminus assumed) | 89100 | 8.01e-05 |  |  |  |  |  |
| Nc1nc(=O)c2nc(CNc3ccc(C(=O)N[C@@H](CCC(=O)O)C(=O)O)cc3)cnc2[nH]1 [Folate, reference compound] |  |  | 6.74e+06 | 0.00769 |  |  |  |
| CC[C@H](C)[C@H](NC(=O)[C@H](Cc1ccc(-n2nnc3c2-c2ccccc2N(C(=O)CCNC(=O)CC[C@H](NC(=O)c2ccc(NCc4cnc5nc(N)[nH]c(=O)c5n4)cc2)C(=O)O)Cc2ccccc2-3)cc1)NC(=O)[C@H](Cc1ccccc1)NC(=O)CNC(=O)CCOCCOCCOCCOCCOCCOCCOCCOCCOCCOCCOCCOCCOCCOCCOCCOCCOCCOCCOCCOCCOCCOCCOCCOCCNC(=O)CCCC[C@@H]1SC[C@@H]2NC(=O)N[C@@H]21)C(=O)N[C@@H](CCC(N)=O)C(=O)O [GFZIQ] ({Biotin-PEG24}-GF[X1]([βAla-γGlu-Pteroyl])IQ-OH; C-terminus assumed) | 411000 | 7.53e-05 |  |  |  |  |  |
| C[C@H](NC(=O)[C@H](CCCCN)NC(=O)[C@H](Cc1ccc(-n2nnc3c2-c2ccccc2N(C(=O)CCNC(=O)CC[C@H](NC(=O)c2ccc(NCc4cnc5nc(N)[nH]c(=O)c5n4)cc2)C(=O)O)Cc2ccccc2-3)cc1)NC(=O)[C@H](CCC(=O)O)NC(=O)[C@H](CO)NC(=O)[C@H](CC(=O)O)NC(=O)CCOCCOCCOCCOCCOCCOCCOCCOCCOCCOCCOCCOCCOCCOCCOCCOCCOCCOCCOCCOCCOCCOCCOCCOCCNC(=O)CCCC[C@@H]1SC[C@@H]2NC(=O)N[C@@H]21)C(=O)N[C@@H](Cc1ccc(O)cc1)C(=O)O [DSEZKAY] ({Biotin-PEG24}-DSE[X1]([βAla-γGlu-Pteroyl])KAY-OH; C-terminus assumed) | 1.1e+06 | 0.000265 |  |  | 12 | 3 | 4 |
